From publication PMC3226492, “Isomer Profiles of Perfluorochemicals in Matched Maternal, Cord, and House Dust Samples: Manufacturing Sources and Transplacental Transfer” (Environmental Health Perspectives, 2011)
Read-outs that look alike come from different tables or passages of the source.

Legend:
[1] = Transplacental transfer efficiency (TTE): cord serum at delivery divided by maternal serum concentration, present study; assay type: in vivo, human; conditions: for TTE calculated from cord:maternal serum concentrations, arithmetic mean / TTE calculated from cord:maternal serum concentrations, maximum / TTE calculated from cord:maternal serum concentrations, median / TTE calculated from cord:maternal serum concentrations, minimum: cord serum at delivery / maternal serum at 15 weeks of gestation; for Mean cord:maternal serum concentration: Present study
[2] = Total PFC concentrations in maternal and cord sera by HPLC-MS/MS; assay type: in vivo, human; conditions: for mean concentration in cord serum: cord serum at delivery
Protocol: Blood collection. Samples (n = 20) analyzed in this study are a subset of the Chemicals, Health and Pregnancy (CHirP) cohort recruited in 2007–2008 in Vancouver (BC, Canada) ([Webster et al. 2011]). All participants provided informed consent. Laboratory personnel collected blood samples from pregnant volunteers in Vancouver at 15 weeks of gestation, and samples of cord blood (n = 20) were collected at delivery. After serum separation, all samples were stored at –80°C. Ethical clearance was obtained from the research ethics boards of the University of British Columbia, the University of Alberta, Health Canada, and the three participating hospitals.
Serum preparation. The method of [Kuklenyik et al. (2004)] was adapted for the extraction of PFCs from serum using a Rapid Trace system (Caliper Life Sciences, Hopkinton, MA, USA). The solid-phase extraction cartridge (Oasis-HLB, Waters, Milford, MA, USA; 60 mg/3 mL) was conditioned with 2 mL methanol followed by 2 mL of 0.1 M formic acid. Serum was prepared for extraction by mixing 3 mL of 0.1 M formic acid with 1.0 mL serum. After the addition of mass-labeled internal standards (10 ng each), the mixture was vortexed and sonicated for 20 min. Prepared serum was added to the column and washed successively with 3 mL of 0.1 M formic acid, 6 mL of 50% 0.1 M formic acid/50% methanol, and 1 mL of 1% ammonium hydroxide. The cartridge was drained by vacuum, and PFCs were eluted with 1.0 mL of 1% ammonium hydroxide in acetonitrile. The eluate was concentrated to 100 μL followed by the addition of 200 μL of 90% 20 mM acetic acid in 10% methanol. Method blanks containing calf serum, a calf serum sample spiked at 0.5 ng/mL of each PFC, and a human serum sample spiked at 10 ng/mL were analyzed with the study samples.
Total PFC analysis. For total PFC concentrations, separation was by HPLC on a 150-mm Synergi Hydro-RP C-18 column (Phenomenex, Torrance, CA, USA). Gradient elution at 600 μL/min used A [20 mM ammonium acetate (pH 4) in water] and B (methanol) mobile phases. Initial conditions were 60% A for 1 min, ramped to 20% A by 3 min, a 5-min hold, an increase to 100% B by 8.5 min, and a hold until 14 min, at which time initial conditions were reestablished. MS/MS data were collected on an Applied Biosystems API 3000 mass spectrometer (Applied Biosystems, Carlsbad, CA, USA) using electrospray ionization in negative-ion mode [for mean recoveries of total PFCs in serum and dust, see Supplemental Material, Table 1 (http://dx.doi.org/10.1289/ehp.1003265)].

[3] = cited from earlier work
[4] = Canada, 2007, n 20, maternal serum sampled in the second trimester
[5] = TTE adjusted from 15 weeks to time of delivery (~ 40 weeks) using data from Monroy et al. (2008)
[6] = maternal serum, 15 weeks of gestation
[7] = Canada, 2004–2005, n 101, ref Monroy et al. 2008
[8] = Denmark, 1996–2002, n 50, maternal serum sampled in the first trimester, ref Fei et al. 2007
[9] = Denmark, 1996–2002, n 50, maternal serum sampled in the second trimester, ref Fei et al. 2007
[10] = Faroe Islands, 2000, n 12, ref Needham et al. 2011
[11] = Germany, 2003, n 11, ref Midasch et al. 2007
[12] = Germany, 2007–2009, n 27, ref Fromme et al. 2010
[13] = Korea, 2007, n 20, ref Kim et al. 2011
[14] = South Africa, 2005–2006, n 58, ref Hanssen et al. 2010

| Structure (SMILES) | TTE calculated from cord:maternal serum concentrations, arithmetic mean [1] | TTE calculated from cord:maternal serum concentrations, maximum [1] | TTE calculated from cord:maternal serum concentrations, median [1] | TTE calculated from cord:maternal serum concentrations, minimum [1] | further results |
| --- | --- | --- | --- | --- | --- |
| O=S(=O)(O)C(F)(F)C(F)(F)C(F)(F)C(F)(F)C(F)(F)C(F)(C(F)(F)F)C(F)(F)F [Iso- PFOS] | 0.36 | 0.60 | 0.34 | 0.09 | – |
| O=C(O)C(F)(F)C(F)(F)C(F)(F)C(F)(F)C(F)(F)C(F)(F)C(F)(F)F [Total PFOA, perfluorooctanoate] | 0.61 | 0.96 | 0.63 | 0.32 | Mean cord:maternal serum concentration [1, 4]: 0.61; Mean cord:maternal serum concentration [1, 5]: 0.71; mean concentration in cord serum [2]: 1.1 ng/mL; mean concentration in maternal serum [2, 6]: 1.8 ng/mL; Mean cord:maternal serum concentration [3, 7]: 0.81; Mean cord:maternal serum concentration [3, 8]: 0.55; Mean cord:maternal serum concentration [3, 9]: 0.68; Mean cord:maternal serum concentration [3, 10]: 0.72; Mean cord:maternal serum concentration [3, 11]: 1.26; Mean cord:maternal serum concentration [3, 12]: 0.70; Mean cord:maternal serum concentration [3, 13]: 0.69; Mean cord:maternal serum concentration [3, 14]: 0.71 |
| O=S(=O)(O)C(F)(F)C(F)(F)C(F)(C(F)(F)F)C(F)(F)C(F)(F)C(F)(F)C(F)(F)F (stereo not shown) [3m-PFOS] | 0.67 | 1.12 | 0.68 | 0.21 | – |
| O=S(=O)(O)C(F)(F)C(F)(F)C(F)(F)C(F)(F)C(F)(F)C(F)(F)F [Total PFHxS, perfluorohexane sulfonate] | 0.41 | 0.56 | 0.38 | 0.29 | mean concentration in cord serum [2]: 0.7 ng/mL; concentration at 15 weeks of gestation ([2]; female, human, maternal serum, 15 weeks of gestation): 1.7 ng/mL |
| O=C(O)C(F)(F)C(F)(F)C(F)(F)C(F)(F)C(F)(C(F)(F)F)C(F)(F)F [Iso-PFOA] | 0.84 | 2.56 | 0.67 | 0.16 | – |
| O=S(=O)(O)C(F)(F)C(F)(F)C(F)(F)C(F)(F)C(F)(F)C(F)(F)C(F)(F)C(F)(F)F [n-PFOS, linear perfluorooctane sulfonate] | 0.33 | 0.58 | 0.30 | 0.10 | – |
| O=S(=O)(O)C(F)(F)C(F)(F)C(F)(F)C(F)(F)C(F)(C(F)(F)F)C(F)(F)C(F)(F)F (stereo not shown) [5m-PFOS] | 0.53 | 0.93 | 0.52 | 0.25 | – |
| O=C(O)C(F)(F)C(F)(F)C(F)(C(F)(F)F)C(F)(F)C(F)(F)C(F)(F)F (stereo not shown) [4m-PFOA] | 0.64 | 1.29 | 0.68 | 0.09 | TTE calculated from cord:maternal serum concentrations, maximum ([1]; listed as 4m-PFOA): > 1.0 |
| O=S(=O)(O)C(F)(C(F)(F)F)C(F)(F)C(F)(F)C(F)(F)C(F)(F)C(F)(F)C(F)(F)F (stereo not shown) [1m-PFOS] | 0.87 | 1.24 | 0.88 | 0.36 | – |
| O=C(O)C(F)(F)C(F)(F)C(F)(F)C(C(F)(F)F)(C(F)(F)F)C(F)(F)F [tb-PFOA] | 0.25 | 0.48 | 0.25 | 0.02 | – |
| O=S(=O)(O)C(F)(F)C(F)(F)C(F)(F)C(F)(C(F)(F)F)C(F)(F)C(F)(F)C(F)(F)F (stereo not shown) [4m-PFOS] | 0.55 | 0.85 | 0.52 | 0.20 | – |
| O=C(O)C(F)(F)C(F)(F)C(F)(F)C(F)(F)C(F)(F)C(F)(F)C(F)(F)F [n-PFOA] | 0.62 | 1.00 | 0.61 | 0.26 | – |
| O=C(O)C(F)(F)C(F)(F)C(F)(F)C(F)(F)C(F)(F)C(F)(F)C(F)(F)C(F)(F)F [Total PFNA, perfluorononanoate] | 0.41 | 0.78 | 0.38 | 0.13 | mean concentration in cord serum [2]: 0.4 ng/mL; mean concentration in maternal serum [2, 6]: 0.9 ng/mL |
| O=S(=O)(O)C(F)(F)C(F)(F)C(F)(F)C(F)(F)C(F)(F)C(F)(F)C(F)(F)C(F)(F)F [Total PFOS, perfluorooctane sulfonate] | 0.33 | 0.53 | 0.31 | 0.20 | Mean cord:maternal serum concentration [1, 4]: 0.33; Mean cord:maternal serum concentration [1, 5]: 0.36; mean concentration in cord serum [2]: 1.8 ng/mL; mean concentration in maternal serum [2, 6]: 5.5 ng/mL; Mean cord:maternal serum concentration [3, 7]: 0.45; Mean cord:maternal serum concentration [3, 8]: 0.29; Mean cord:maternal serum concentration [3, 9]: 0.34; Mean cord:maternal serum concentration [3, 10]: 0.34; Mean cord:maternal serum concentration [3, 11]: 0.60; Mean cord:maternal serum concentration [3, 12]: 0.30; Mean cord:maternal serum concentration ([3]; Japan, 2003, n 15, ref Inoue et al. 2004): 0.32; Mean cord:maternal serum concentration [3, 13]: 0.36; Mean cord:maternal serum concentration [3, 14]: 0.45 |
| O=C(O)C(F)(F)C(F)(F)C(F)(F)C(F)(F)C(F)(F)C(F)(F)C(F)(F)C(F)(F)C(F)(F)F [Total PFDA, perfluorodecanoate] | 0.34 | 1.10 | 0.23 | 0.00 | mean concentration in cord serum [2]: 0.1 ng/mL; mean concentration in maternal serum [2, 6]: 0.4 ng/mL |
| O=C(O)C(F)(F)C(F)(F)C(F)(F)C(F)(C(F)(F)F)C(F)(F)C(F)(F)F (stereo not shown) [5m-PFOA] | 0.86 | 2.26 | 0.54 | 0.09 | TTE calculated from cord:maternal serum concentrations, maximum ([1]; listed as 5m-PFOA): > 1.0 |
| O=C(O)C(F)(F)C(F)(C(F)(F)F)C(F)(F)C(F)(F)C(F)(F)C(F)(F)F (stereo not shown) [3m-PFOA] | 0.76 | – | 0.68 | 0.07 | – |
